Measurements published in publication PMC11721924, “Discovery of LAH-1 as potent c-Met inhibitor for the treatment of non-small cell lung cancer” (Journal of Enzyme Inhibition and Medicinal Chemistry, 2023).
Read-outs that look alike come from different tables or passages of the source.

Tests used:
KDR = KDR (Homo sapiens, UniProt P35968); test: Kinase profile, KDR; settings: 300 nM
[1] = system: panel of 18 diversified kinases; test: Kinase profile against a panel of 18 kinases; settings: 300 nM; including highly homologous kinases RON and Axl
[2] = Liver microsomal stability assay; assay type: in vitro ADME, human; settings: HLM
Procedure: (§1) Having characterised LAH-1 as a potent c-Met inhibitor, the ADME properties and PK parameters were further determined. […] Additionally, Egg-PAMPA (Parallel artificial membrane permeability assay) confirmed LAH-1 as membrane permeable, with permeability rates (Pe) of 3.4 nm/s. […] Next, LAH-1 was further progressed into in vivo PK studies.
(§2) The liver microsomal stability assay, PAMPA, and CYP 450 Inhibition Assay were conducted according to the previous reported procedure.

[3] = Egg-PAMPA permeability assay; assay type: in vitro ADME; settings: incubation 4 h
Procedure: as §1, §2

WI-38 cells = test: Antiproliferative inhibition, normal fibroblasts; assay type: cell-based; settings: Homo sapiens
EBC-1 cells [4] = test: Annexin V-FITC/PI dual staining apoptosis assay; assay type: cell-based, human; settings: EBC-1, 24 h; untreated group 1.42%
Procedure: To determine whether the observed cell death was due to physiological apoptosis, Annexin V FITC/PI dual staining assay was conducted. EBC-1cells were treated with LAH-1 at different concentrations for 24 h to examine the effect on apoptosis.
The effect of LAH-1 on EBC-1 cells apoptosis was determined by Annexin V-FITC/PI apoptosis detection kit (BD Bioscience, Cat. No. 556547). Briefly, 300,000 EBC-1 cells were seeded in 6-well plate. After treatment with or without LAH-1 for 24 h, cells were collected, stained by FITC in binding buffer preventing from light, and then labelled by PI (absin, Cat. No. abs50005-50T). The apoptotic cells were analysed by flow cytometer Cytoflex S (Beckman Coulter).

NCI-H441 cells [5] = test: HGF-induced cell invasion (transwell); assay type: cell-based; settings: HGF 100 ng/mL, 28 h
Procedure: (§3) To investigate the effect of LAH-1 on colony formation ability, the EBC-1 cells which harbouring Met amplification were treated with different concentrations of LAH-1. […] Considering the important role of HGF/c-Met signalling in promoting cancer cell migration and invasion, the NCI-H441 cells with elevated expression level of c-Met was used. After treatment with HGF in the presence of LAH-1, the migratory and invasive abilities of NCI-H441 cells were determined.
(§4) NCI-H441 cells in log growth phase were suspended in serum-free medium at a density of 150,000 cells per well and then seeded in 24-well transwell plates ([8] μm; Corning). Designated control or LAH-1 treated cells were added to each migration or invasion chamber and incubated for 28 h. Additionally, HGF (100 ng/mL) was added to the lower well of each companion plate to attract cells from migration or invasion chamber plate inserts at the top of the companion plate. The invaded or migrated cells to the lower wells were then fixed and stained with crystal violet. Images were taken by Olympus BX51 microscope.

CYP3A4 = CYP3A4 (Homo sapiens, UniProt P08684); test: CYP450 inhibition assay; assay type: in vitro ADME
CYP3A4, sequence (P08684 whole entry): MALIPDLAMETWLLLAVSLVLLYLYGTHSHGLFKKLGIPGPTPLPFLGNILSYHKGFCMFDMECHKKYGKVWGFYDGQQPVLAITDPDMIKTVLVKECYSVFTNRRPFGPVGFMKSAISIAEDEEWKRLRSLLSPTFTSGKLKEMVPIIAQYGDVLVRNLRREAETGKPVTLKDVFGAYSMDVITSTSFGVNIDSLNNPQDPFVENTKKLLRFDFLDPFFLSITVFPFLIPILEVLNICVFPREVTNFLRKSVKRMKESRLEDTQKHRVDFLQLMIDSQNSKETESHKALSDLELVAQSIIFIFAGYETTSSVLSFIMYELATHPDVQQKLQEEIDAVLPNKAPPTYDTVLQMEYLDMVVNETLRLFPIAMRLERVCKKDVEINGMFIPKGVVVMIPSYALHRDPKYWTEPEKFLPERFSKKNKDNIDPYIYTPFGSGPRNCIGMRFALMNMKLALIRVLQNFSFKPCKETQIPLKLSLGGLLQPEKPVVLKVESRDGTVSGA
Procedure: as §1, §2

CYP1A2 = biological target: T1, CYP1A2 (Homo sapiens, UniProt P05177); test: CYP450 inhibition assay; assay type: in vitro ADME
T1 sequence (P05177 1-516): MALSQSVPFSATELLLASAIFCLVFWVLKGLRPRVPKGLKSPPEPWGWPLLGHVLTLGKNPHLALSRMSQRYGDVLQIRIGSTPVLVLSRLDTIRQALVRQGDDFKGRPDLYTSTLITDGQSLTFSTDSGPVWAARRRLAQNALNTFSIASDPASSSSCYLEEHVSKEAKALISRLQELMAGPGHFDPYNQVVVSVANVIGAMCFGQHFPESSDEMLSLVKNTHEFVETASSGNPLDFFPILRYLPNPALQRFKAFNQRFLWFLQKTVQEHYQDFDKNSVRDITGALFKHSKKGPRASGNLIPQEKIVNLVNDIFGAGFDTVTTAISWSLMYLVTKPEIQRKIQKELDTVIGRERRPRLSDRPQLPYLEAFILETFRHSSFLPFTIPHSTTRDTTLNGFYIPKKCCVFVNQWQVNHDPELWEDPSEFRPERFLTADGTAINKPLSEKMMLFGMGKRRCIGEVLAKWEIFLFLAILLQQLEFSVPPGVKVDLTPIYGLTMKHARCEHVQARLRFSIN
Procedure: as §1, §2

CYP2D6 = CYP2D6 (Homo sapiens, UniProt P10635); test: CYP450 inhibition assay; assay type: in vitro ADME
CYP2D6, sequence (P10635 whole entry): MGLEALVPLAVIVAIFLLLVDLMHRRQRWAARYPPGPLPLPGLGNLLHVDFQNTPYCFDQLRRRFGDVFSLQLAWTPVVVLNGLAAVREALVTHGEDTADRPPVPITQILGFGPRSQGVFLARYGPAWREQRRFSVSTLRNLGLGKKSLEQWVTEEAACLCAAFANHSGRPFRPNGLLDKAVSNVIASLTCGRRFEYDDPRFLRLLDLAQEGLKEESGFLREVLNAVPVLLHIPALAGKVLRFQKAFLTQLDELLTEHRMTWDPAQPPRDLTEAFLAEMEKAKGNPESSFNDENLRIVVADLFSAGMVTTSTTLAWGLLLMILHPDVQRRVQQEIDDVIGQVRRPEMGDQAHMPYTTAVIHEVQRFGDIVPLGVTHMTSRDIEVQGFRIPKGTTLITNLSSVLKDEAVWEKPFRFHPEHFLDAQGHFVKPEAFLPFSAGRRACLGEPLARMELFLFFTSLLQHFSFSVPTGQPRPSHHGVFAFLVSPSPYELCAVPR
Procedure: as §1, §2

CYP2C9 = CYP2C9 (Homo sapiens, UniProt P11712); test: CYP450 inhibition assay; assay type: in vitro ADME
CYP2C9, sequence (P11712 whole entry): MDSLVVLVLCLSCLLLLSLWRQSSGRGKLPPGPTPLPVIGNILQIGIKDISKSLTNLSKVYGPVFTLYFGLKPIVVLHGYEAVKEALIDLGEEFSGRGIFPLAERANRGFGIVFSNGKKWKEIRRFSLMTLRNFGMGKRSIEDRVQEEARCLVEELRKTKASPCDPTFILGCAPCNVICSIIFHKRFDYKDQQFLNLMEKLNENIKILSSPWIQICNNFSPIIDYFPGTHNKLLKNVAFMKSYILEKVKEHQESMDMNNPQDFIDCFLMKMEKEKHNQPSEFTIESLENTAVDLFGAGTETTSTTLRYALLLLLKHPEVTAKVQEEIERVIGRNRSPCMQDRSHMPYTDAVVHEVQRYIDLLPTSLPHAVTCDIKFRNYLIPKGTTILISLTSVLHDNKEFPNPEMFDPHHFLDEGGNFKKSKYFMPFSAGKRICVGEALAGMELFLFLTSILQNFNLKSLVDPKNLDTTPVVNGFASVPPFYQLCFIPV
Procedure: as §1, §2

CYP2C19 = CYP2C19 (Homo sapiens, UniProt P33261); test: CYP450 inhibition assay; assay type: in vitro ADME
CYP2C19, sequence (P33261 whole entry): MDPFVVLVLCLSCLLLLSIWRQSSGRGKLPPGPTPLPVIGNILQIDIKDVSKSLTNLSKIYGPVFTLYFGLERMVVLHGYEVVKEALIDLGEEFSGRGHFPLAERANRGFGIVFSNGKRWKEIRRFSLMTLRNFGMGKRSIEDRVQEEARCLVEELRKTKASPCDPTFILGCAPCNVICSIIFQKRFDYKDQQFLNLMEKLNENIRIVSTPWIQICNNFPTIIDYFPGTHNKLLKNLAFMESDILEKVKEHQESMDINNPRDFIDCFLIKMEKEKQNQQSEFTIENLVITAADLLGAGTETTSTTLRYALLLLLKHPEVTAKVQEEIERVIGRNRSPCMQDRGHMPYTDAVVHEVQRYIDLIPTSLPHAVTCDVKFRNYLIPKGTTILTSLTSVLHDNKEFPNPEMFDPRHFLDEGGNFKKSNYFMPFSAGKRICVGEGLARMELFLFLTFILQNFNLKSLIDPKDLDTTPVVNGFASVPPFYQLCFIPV
Procedure: as §1, §2

OE33 cells = test: Cell proliferation assay (CCK-8); assay type: cell-based; settings: Homo sapiens, 72 h
Procedure: (§5) Considering increased c-Met activity has been implicated in multiple tumour cells, we evaluated the half maximal inhibitory concentration (IC50) of LAH-1 in several cancer cell lines which harbour different levels of Met genetic alteration, these include human lung squamous cell carcinoma EBC-1, human gastric cancer line Hs746T, human oesophageal adenocarcinoma cell line OE33, human small-cell lung cancer SBC-5, and human glioblastoma cell U87MG.
(§6) EBC-1, Hs746T, OE33, SBC-5, U87MG, HT-1080 cell lines were purchased from ATCC, RIKEN, ECACC or JCRB. The antiproliferative activities of LAH-1 against these cells were assessed by CCK-8 assay according to the manufacturer’s protocol. Briefly, cells were seeded in 96-well plate at different density. 3-fold serial diluted compound or DMSO control was added to each well. After 72 h incubation, CCK-8 was added and incubated for another 2 h. The optical density of each well was read by microplate reader (Biotech, Shanghai, China). IC50 values were calculated by GraphPad Prism.

EBC-1 cells [6] = test: Cell proliferation assay (CCK-8); assay type: cell-based; settings: Homo sapiens, 72 h
Procedure: as §5, §6

U87MG cells = test: Cell proliferation assay (CCK-8); assay type: cell-based; settings: Homo sapiens, U-87 MG, 72 h
Procedure: as §5, §6

SBC-5 cells = test: Cell proliferation assay (CCK-8); assay type: cell-based; settings: Homo sapiens, 72 h
Procedure: as §5, §6

Hs746T cells = test: Cell proliferation assay (CCK-8); assay type: cell-based; settings: Homo sapiens, 72 h
Procedure: as §5, §6

In vivo pharmacokinetics = test: In vivo pharmacokinetics; parameters: species or system SD rats
Procedure: as §1
PK parameters of LAH-1 was determined in SD rats (male, n = 3 per group) weighing (200–240 g), which were obtained from SpePharm (Beijing) Biotechnology Co., Ltd. Briefly, rats were fasted overnight before dosing, LAH-1 was given as a solution in 10% DMSO with 90% Saline for intravenously (5 mg/kg) and 0.1% PEG400 in 0.5% CMC-Na in water for PO (20 mg/kg). Each rat received 2 or 10 ml of the dosing solution/kg of body weight by intravenous injection and by gavage, respectively. Blood sample was collected at 0.033 (iv only), 0.083, 0.25, 0.5,1, 2, 4, 6, 8, 12 and 24 h after dosing and stored in ice (0–4 °C). Plasma was separated by centrifugation within 15 min post sampling. Levels of LAH-1 in blood were determined by 6500+ Triple Quad LC-MS/MS System (AB SCIEX LLC, CA, USA). The PK parameters were calculated with WinNonlin software using noncompartmental analysis.

[7] = system: phosphorylation of c-Met, Akt, and Erk 1/2 in EBC-1 cells; test: Western blot of c-Met signalling; assay type: cell-based, human; settings: 2 h treatment
Procedure: Based on the sensitivity of LAH-1 against six cancer cell lines, we then conducted western blot assays to confirm the effect of LAH-1 on c-Met inhibition in cancer cells, and human non-small lung cancer (NSCLC) cell EBC-1 which harbours amplified Met gene was used.
Briefly, EBC-1 cells were seeded at a density of 1.5 × 10^6 cells/well and treated with Compound LAH-1 at the indicated concentration for 2 h. DMSO-treated cells were used as control groups. The whole cellular protein was extracted and measured by BCA protein assay. Total proteins were fractionated on SDS-PAGE and then transferred onto PVDF membranes (Millipore). Membranes were blocked with 5% BSA at room temperature and then incubated overnight at 4 °C with specific primary antibodies (Phospho-Met (CST, #3077S), Met (D1C2) (CST, #8198S), Phospho-Akt (CST, #4060S), Akt (pan) (C67E7) (CST, #4691S), Phospho-p44/42 MAPK (Erk1/2) (CST, #4370S), p44/42 MAPK (Erk1/2) (137F5) (CST, #4695S)) followed by the secondary antibody. Finally, the detection was performed by the Fully Automated Chemiluminescence/Fluorescence Image Analysis Systems (Tanon 5200).

NCI-H441 cells [8] = test: HGF-induced cell migration (transwell); assay type: cell-based; settings: HGF 100 ng/mL, 28 h
Procedure: as §3, §4

[9] = Liver microsomal stability assay; assay type: in vitro ADME, SD rat; settings: RLM
Procedure: as §1, §2

c-Met = c-Met (Homo sapiens, UniProt P08581); test: In vitro enzymatic assay (mobility shift assay, ATP at Km)
c-Met, sequence (P08581 956-1390 limits assumed): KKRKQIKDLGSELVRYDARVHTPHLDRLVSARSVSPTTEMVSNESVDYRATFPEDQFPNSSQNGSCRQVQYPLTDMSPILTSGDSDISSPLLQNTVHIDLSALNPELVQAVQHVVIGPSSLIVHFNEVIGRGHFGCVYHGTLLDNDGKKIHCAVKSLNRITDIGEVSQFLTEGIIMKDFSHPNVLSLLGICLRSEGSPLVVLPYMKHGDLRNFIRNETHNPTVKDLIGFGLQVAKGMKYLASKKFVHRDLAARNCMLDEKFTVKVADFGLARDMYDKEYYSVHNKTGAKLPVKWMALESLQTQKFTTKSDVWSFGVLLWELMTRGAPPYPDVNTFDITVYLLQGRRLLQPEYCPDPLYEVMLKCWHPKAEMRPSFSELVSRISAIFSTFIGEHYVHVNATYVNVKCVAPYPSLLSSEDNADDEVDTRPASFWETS
Procedure: The compound and enzyme solution were added to the assay plate and incubate at room temperature for 10 min. Then the peptide solution was added, incubate at 28 °C for specified period of time, and subsequently added the stop buffer. Data was collected on Calliper, and IC50 values were calculated from the inhibition curves.

EBC-1 cells [10] = test: Colony formation; assay type: cell-based, human; settings: EBC-1, 14 days treatment, especially at 20 μM
Procedure: as §3
EBC-1 cells were trypsinized and approximately 2000 cells were plated on 6-well plates. 14 days later, visible colonies were fixed and stained with 0.1% crystal violet. The number of colonies was quantified by Image J software (Developed by National Institutes of Health). A group of >50 cells was defined as one colony. All experiments were performed in duplicate wells.

HT-1080 cells = test: Cell proliferation assay (CCK-8); assay type: cell-based, human
Procedure: as §5, §6

[11] = Sprague-Dawley, rat, plasma, iv, 5 mg/kg, male SD rats
[12] = Sprague-Dawley, rat, plasma, po, 20 mg/kg, male SD rats

KDR, sequence (P35968 20-1356, species assumed): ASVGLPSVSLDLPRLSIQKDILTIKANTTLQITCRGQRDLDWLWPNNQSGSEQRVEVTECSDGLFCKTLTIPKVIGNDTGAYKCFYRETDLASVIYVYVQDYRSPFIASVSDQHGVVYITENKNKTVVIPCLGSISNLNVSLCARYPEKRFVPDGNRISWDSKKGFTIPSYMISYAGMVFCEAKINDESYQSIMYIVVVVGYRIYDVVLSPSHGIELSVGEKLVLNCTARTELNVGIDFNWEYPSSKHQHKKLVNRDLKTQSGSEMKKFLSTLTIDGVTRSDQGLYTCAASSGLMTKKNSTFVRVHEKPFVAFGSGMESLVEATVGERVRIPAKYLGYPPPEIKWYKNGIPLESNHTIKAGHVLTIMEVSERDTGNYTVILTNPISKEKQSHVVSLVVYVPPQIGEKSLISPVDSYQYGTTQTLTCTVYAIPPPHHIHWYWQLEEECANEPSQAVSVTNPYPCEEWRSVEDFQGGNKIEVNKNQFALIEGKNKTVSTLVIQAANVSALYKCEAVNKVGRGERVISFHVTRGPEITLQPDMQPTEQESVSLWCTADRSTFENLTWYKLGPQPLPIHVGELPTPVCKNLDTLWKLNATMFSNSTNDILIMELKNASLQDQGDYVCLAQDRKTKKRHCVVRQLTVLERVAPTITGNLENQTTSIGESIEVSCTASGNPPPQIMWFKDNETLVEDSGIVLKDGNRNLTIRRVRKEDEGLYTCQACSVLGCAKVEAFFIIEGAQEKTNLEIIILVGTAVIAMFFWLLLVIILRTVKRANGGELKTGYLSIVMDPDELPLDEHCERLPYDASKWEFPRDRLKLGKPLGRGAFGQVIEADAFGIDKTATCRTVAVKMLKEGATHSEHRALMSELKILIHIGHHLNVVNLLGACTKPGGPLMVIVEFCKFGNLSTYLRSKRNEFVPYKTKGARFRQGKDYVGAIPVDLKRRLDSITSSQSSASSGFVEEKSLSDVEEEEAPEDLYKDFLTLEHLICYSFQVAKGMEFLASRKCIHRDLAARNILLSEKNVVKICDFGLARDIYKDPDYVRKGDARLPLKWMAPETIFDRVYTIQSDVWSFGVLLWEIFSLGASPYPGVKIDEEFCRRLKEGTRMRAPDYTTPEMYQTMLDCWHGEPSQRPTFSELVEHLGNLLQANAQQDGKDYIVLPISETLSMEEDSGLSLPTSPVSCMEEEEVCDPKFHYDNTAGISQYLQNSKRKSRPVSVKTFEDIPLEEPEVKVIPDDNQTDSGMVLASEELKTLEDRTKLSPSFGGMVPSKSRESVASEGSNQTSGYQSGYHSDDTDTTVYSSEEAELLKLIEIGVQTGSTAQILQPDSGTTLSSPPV

## Cc1cc(=O)n(-c2ccc(F)cc2)nc1C(=O)Nc1ccc(Oc2ccnc(NC(=O)N3CC(O)C3)c2)c(F)c1 [LAH-1, N-(3-fluoro-4-((2-(3-hydroxyazetidine-1-carboxamido)pyridin-4-yl)oxy)phenyl)-1-(4-fluorophenyl)-4-methyl-6-oxo-1,6-dihydropyridazine-3-carboxamide]
KDR
  inhibition on KDR: showed inhibition
[1]
  selectivity over the other 16 kinases: great selectivity
[2]
  Remaining (T = 60min): 88.7%
[2]; human, liver microsomes
  half-life: > 2.08 h
[2]; human, liver microsomes, read-out: CL int
  microsomal CLint: < 8.6 µL/min/mg
[3]; 10 μM
  Permeability: Moderate
[3]; read-out: Mean Pe
  Papp at 4 h, 10 μM: 0.34 ×10⁻⁶ cm/s
WI-38 cells
  inhibition at 100 µM: 34.5%
EBC-1 cells [4]
  early apoptosis: 16.8%
NCI-H441 cells [5]
  invasion of HGF-induced NCI-H441 cells: dose dependent suppressed
CYP3A4
  inhibition at 10 µM: 32.2%
CYP1A2
  inhibition at 10 µM: 12.8%
CYP2D6
  inhibition at 10 µM: 21.5%
CYP2C9
  inhibition at 10 µM: 50.7%
CYP2C19
  inhibition at 10 µM: 15.6%
OE33 cells
  IC50: 4.28 µM
EBC-1 cells [6]
  IC50: 1.15 µM
U87MG cells
  IC50: 15.7 µM
SBC-5 cells
  IC50: 16.1 µM
Hs746T cells
  IC50: 2.35 µM
In vivo pharmacokinetics; [11]
  AUC(0-inf): 16800 ng·h/mL
  Cmax: 14900 ng/mL
  clearance: 19.2 mL/min/kg
  half-life: 1.6 h
In vivo pharmacokinetics; Sprague-Dawley, rat, plasma, po 20 mg/kg vs iv 5 mg/kg, male SD rats, read-out: F% (oral bioavailability)
  bioavailability: 12.2%
In vivo pharmacokinetics; [12]
  AUC(0-inf): 8210 ng·h/mL
  Cmax: 4460 ng/mL
  Tmax: 0.33 h
  half-life: 2.2 h
In vivo pharmacokinetics; iv, 5 mg/kg, SD rats
  plasma clearance (in words): moderate plasma clearance
[7]
  phosphorylation level of c-Met, Akt, and Erk 1/2: dose-dependent decrease
NCI-H441 cells [8]
  migration of HGF-induced NCI-H441 cells: dose dependent suppressed
[9]
  Remaining (T = 60min): 81.2%
[9]; Sprague-Dawley, rat, liver microsomes
  half-life: > 2.08 h
[9]; Sprague-Dawley, rat, liver microsomes, read-out: CL int
  microsomal CLint: < 8.6 µL/min/mg
c-Met
  IC50: 0.049 µM
EBC-1 cells [10]
  colony formation: significantly inhibited
HT-1080 cells; Homo sapiens, HT-1080, 72 h, CCK-8, c-Met non-addicted cell line
  IC50: > 100 µM
HT-1080 cells; cell line with low expression or activation of c-Met
  effect on HT-1080 (in words): minimal effect
